For ten compounds, IC50 results are on record in EP4775582A1, “MACROCYCLIC COMPOUND AND ANTIBODY-DRUG CONJUGATE THEREOF” (Genfleet Therapeutics (Shanghai) Inc., priority 2023, dated 2025).

Molecules are shown by their SMILES. Where two headings read alike, the source gives them in different places.

One assay deals with KRAS WT-cRAF (Homo sapiens, UniProt P01116+P62937). As to the kind of experiment: Assay for binding of KRAS to cRAF (HTRF, with Cyclophilin A), KRAS WT.
For the next assay, the target named is KRAS G12V-cRAF (Homo sapiens, UniProt P01116+P62937, G12V). As to the kind of experiment: Assay for binding of KRAS to cRAF (HTRF, with Cyclophilin A), KRAS G12V. In general terms: Time-resolved FRET reads energy transfer from a long-lived donor to a nearby acceptor.
The test system of the next assay is AsPC-1 p-ERK. As to the kind of experiment: Cell p-ERK assay (HTRF), AsPC-1 cells. The format is cell-based, human. A digest of the protocol:
(§1)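 AsPC-1 (10000/well) or NCI-H441 (20000/well) cells were seeded overnight and then exposed to compound for 3 h at 37 °C. Lysates were probed for ERK phospho-T202/Y204 by HTRF with a 4-hour antibody incubation. IC50 values came from four-parameter fits of inhibition against log concentration.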

In a further assay the test system is H441 p-ERK. As to the kind of experiment: Cell p-ERK assay (HTRF), NCI-H441 cells. The format is cell-based, human. As to conditions: NCI-H441 cells (KRAS G12V), 3 h incubation. A digest of the protocol:
as §1

For the next assay, the system named is NCI-H441 cells. As to the kind of experiment: 3D cell proliferation assay (CellTiter Glo-3D), NCI-H441. The format is cell-based, human. The conditions noted are these: NCI-H441 cells (KRAS G12V), 2% FBS, 5 days, read-out: H441 AP IC50. Summed up: (§2)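 Cells seeded at 800 per well (AsPC-1, NCI-H441) in 2% FBS medium and incubated overnight at 37 °C, 5% CO2. Compounds added next day from 10× stock, then 5 days' further culture. Viability read by CellTiter-Glo luminescence; IC50 from four-parameter fit of inhibition versus log concentration.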

The subject of a further assay is AsPC-1 cells. As to the kind of experiment: 3D cell proliferation assay (CellTiter Glo-3D), AsPC-1. In kind it is cell-based, human. A digest of the protocol:
as §2
Background: ATP-based viability assays read luminescence as a measure of living cells.

Where [1] appears, read: KRAS WT-cRAF binding assay(nM), GPPNP-KRAS WT, IC50 values.
[2] abbreviates: KRAS G12V-cRAF binding assay(nM), GPPNP-KRAS G12V, IC50 values.
The mark [3] stands for this setting: read-out: KRAS WT-cRAF binding assay, GPPNP-KRAS WT, IC50 values.
[4] abbreviates: read-out: KRAS G12V-cRAF binding assay, GPPNP-KRAS G12V, IC50 values.
Where [5] appears, read: Homo sapiens, ASPC1, 3 h, read-out: AsPC-1 p-ERK IC50(nM).
[6] abbreviates: Homo sapiens, ASPC1, 120 h, read-out: AsPC-1 AP IC50(nM).

Sequence of KRAS WT-cRAF (P01116 1-188 isoform P01116-2): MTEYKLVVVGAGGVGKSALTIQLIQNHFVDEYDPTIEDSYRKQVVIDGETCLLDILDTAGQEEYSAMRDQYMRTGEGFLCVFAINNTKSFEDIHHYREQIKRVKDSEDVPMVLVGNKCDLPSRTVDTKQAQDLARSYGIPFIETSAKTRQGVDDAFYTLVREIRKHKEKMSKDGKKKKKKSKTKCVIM
Sequence of KRAS WT-cRAF (P62937 whole entry): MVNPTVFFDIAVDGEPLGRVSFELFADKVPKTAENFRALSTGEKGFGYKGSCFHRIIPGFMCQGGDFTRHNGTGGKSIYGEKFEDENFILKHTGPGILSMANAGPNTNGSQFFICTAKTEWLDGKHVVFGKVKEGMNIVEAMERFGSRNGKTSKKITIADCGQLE
Sequence of KRAS G12V-cRAF (P01116 1-188 isoform P01116-2 G12V): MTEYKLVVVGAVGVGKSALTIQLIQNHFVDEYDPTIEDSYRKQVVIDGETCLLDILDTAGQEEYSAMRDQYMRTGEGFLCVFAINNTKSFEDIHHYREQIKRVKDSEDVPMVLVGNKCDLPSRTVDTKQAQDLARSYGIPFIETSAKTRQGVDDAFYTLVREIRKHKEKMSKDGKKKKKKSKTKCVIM
Sequence of KRAS G12V-cRAF (P62937 whole entry): as the sequence (P62937 whole entry) above
Experimental for KRAS G12V-cRAF: (§3) The plate was centrifuged at 1000 rpm for 1 min and then incubated in the thermostatic incubator at 20 °C for 30 min. […] The plate was centrifuged at 1000 rpm for 1 min and then incubated in the thermostatic incubator at 20 °C for 60 min. […] The working solution was added to the aforementioned assay plate at 5 µL/well. The plate was centrifuged at 1000 rpm for 1 min and then incubated in the thermostatic incubator at 20 °C for 60 min.
Experimental for KRAS WT-cRAF: as §3

Take `CCn1c(-c2cc(C#CCN3CCC(C#N)CC3)cnc2C(C)OC)c2c3cc(ccc31)-c1coc(n1)CC(NC(=O)C1C(C)C1C)C(=O)N1CCCC(N1)C(=O)OCC(C)(C)C2` (atropisomer, axis not shown; (Ra)) [Compound Z155, (1r,2R,3S)-N-((6^3S,4S,Z)-(Ra)^2-(5-(3-(4-cyanopiperidin-1-yl)prop-1-yn-1-yl)-2-((S)-1-methoxyethyl)pyridin-3-yl)-1^1-ethyl-10,10-dimethyl-5,7-dioxo-6^1,6^2,6^3,6^4,6^5,6^6-hexahydro-1^1H-8-oxa-2(4,2)-oxazola-1(5,3)-indola-6(1,3)-pyridazinacycloundecaphan-4-yl)-2,3-dimethylcyclopropanecarboxamide]: the results for the IC50 on KRAS WT-cRAF (setting [1]) and at KRAS G12V-cRAF (setting [2]) were 18.7 nM and 8.29 nM, respectively.
Regarding `CCn1c(-c2cc(C#CCN3CCC(C#N)(CO)CC3)cnc2[C@H](C)OC)c2c3cc(ccc31)-c1csc(n1)C[C@H](NC(=O)[C@H]1[C@@H]3COC[C@@H]31)C(=O)N1CCC[C@H](N1)C(=O)OCC(C)(C)C2` (atropisomer, axis not shown) [Compound Z39], the IC50 at KRAS WT-cRAF (setting [3]) was 22.1 nM; on KRAS G12V-cRAF (setting [4]), 9.1 nM.
For `CCn1c(-c2cc(C#CCN3CCC(C#N)CC3)cnc2C(C)OC)c2c3cc(ccc31)-c1coc(n1)CC(NC(=O)C1C3COCC31)C(=O)N1CCCC(N1)C(=O)OCC(C)(C)C2` (atropisomer, axis not shown; (Ra)) [Compound Z168, (1R,5S,6r)-N-((6^3S,4S,Z)-(Ra)-1^2-(5-(3-(4-cyanopiperidin-1-yl)prop-1-yn-1-yl)-2-((S)-1-methoxyethyl)-pyridin-3-yl)-1^1-ethyl-10,10-dimethyl-5,7-dioxo-6^1,6^2,6^3,6^4,6^5,6^6-hexahydro-1^1H-8-oxa-2(4,2)-oxazola-1(5,3)-indola-6(1,3)-pyridazinacycloundecaphane-4-yl)-3-oxabicyclo[3.1.0]hexane-6-carboxamide], the IC50 on KRAS WT-cRAF (setting [1]) worked out at 16.4 nM; in the assay with AsPC-1 p-ERK (Homo sapiens, ASPC1, AsPC-1 cells (KRAS G12D), 3 h incubation, read-out: AsPC-1 p-ERK IC50), 0.03 nM; at KRAS G12V-cRAF (setting [2]), 7.75 nM; with H441 p-ERK (Homo sapiens), 0.09 nM.
On to `CCn1c(-c2cc(C#CCN3CCC(C#N)CC3)cnc2[C@H](C)NC)c2c3cc(ccc31)-c1csc(n1)C[C@H](NC(=O)[C@H]1[C@@H]3COC[C@@H]31)C(=O)N1CCC[C@H](N1)C(=O)OCC(C)(C)C2` (atropisomer, axis not shown; (Ra)) [Compound Z169-1, (1R,5S,6r)-N-((6^3S,4S,Z)-(Ra)-1^2-(5-(3-(4-cyanopiperidin-1-yl)prop-1-yn-1-yl)-2-((S)-1-(methylamino)ethyl)pyridin-3-yl)-1^1-ethyl-10,10-dimethyl-5,7-dioxo-6^1,6^2,6^3,6^4,6^5,6^6-hexahydro-1^1H-8-oxa-2(4,2)-thiazola-1(5,3)-indola-6(1,3)-pyridazinacycloundecaphane-4-yl)-3-oxabicyclo[3.1.0]hexane-6-carboxamide], for which the IC50 at KRAS WT-cRAF (setting [3]) is 58.2 nM; on KRAS G12V-cRAF (setting [4]), 17.5 nM.
As to `CCn1c(-c2cc(C#CCN3CCS(=O)(=O)CC3)cnc2C(C)OC)c2c3cc(ccc31)-c1csc(n1)CC(NC(=O)C1C(C)C1C(=O)NCCO)C(=O)N1CCCC(N1)C(=O)OCC(C)(C)C2` (atropisomer, axis not shown; (Ra)) [Compound Z13-2, (1S,2S,3R)-N^1-((6^3S,4S,Z)-(Ra)-1^2-(5-(3-(1,1-dioxidothiomorpholino)prop-1-yn-1-yl)-2-((S)-1-methoxyethyl)pyridin-3-yl)-1^1-ethyl-10,10-dimethyl-5,7-dioxo-6^1,6^2,6^3,6^4,6^5,6^6-hexahydro-1^1H-8-oxa-2(4,2)-thiazola-1(5,3)-indola-6(1,3)-pyridazinacycloundecaphane-4-yl)-N^2-(2-hydroxyethyl)-3-methylcyclopropane-1,2-dicarboxamide], the IC50 turned out to be 22.6 nM at KRAS WT-cRAF (setting [1]) and 5.1 nM on KRAS G12V-cRAF (setting [2]).
With `CCn1c(-c2cc(C#CCN3CCN(C)CC3)cnc2[C@H](C)OC)c2c3cc(ccc31)-c1csc(n1)C[C@H](NC(=O)[C@H]1[C@@H]3COC[C@@H]31)C(=O)N1CCC[C@H](N1)C(=O)OCC(C)(C)C2` (atropisomer, axis not shown; (Ra)) [Compound Z83, (1R,5S,6r)-N-((6^3S,4S,Z)-1^1-ethyl-(Ra)-1^2-(2-((S)-1-methoxyethyl)-5-(3-(4-methylpiperazin-1-yl)prop-1-yn-1-yl)pyridin-3-yl)-10,10-dimethyl-5,7-dioxo-6^1,6^2,6^3,6^4,6^5,6^6-hexahydro-1^1H-8-oxa-2(4,2)-thiazola-1(5,3)-indola-6(1,3)-pyridazinacycloundecaphane-4-yl)-3-oxabicyclo[3.1.0]hexane-6-carboxamide], the IC50 with NCI-H441 cells (Homo sapiens, 120 h) was determined as 0.09 nM; with AsPC-1 p-ERK (setting [5]) it was 0.64 nM; in the assay with H441 p-ERK (Homo sapiens), 0.42 nM; in the assay on AsPC-1 cells (setting [6]) it was 0.12 nM.
For `CO[C@@H](C)c1ncc(C#CCN2CCS(=O)(=O)CC2)cc1-c1c2c3cc(ccc3n1CC(C)O)-c1csc(n1)C[C@H](NC(=O)[C@H]1[C@H](C)[C@@H]1C)C(=O)N1CCC[C@H](N1)C(=O)OCC(C)(C)C2` (atropisomer, axis not shown; (Ra)) [Compound Z3, (1r,2R,3S)-N-((6^3S,4S,Z)-(Ra)-1^2-(5-(3-(1,1-dioxidothiomorpholino)prop-1-yn-1-yl)-2-((S)-1-methoxyethyl)pyridin-3-yl)-1^1-(2-hydroxypropyl)-10,10-dimethyl-5,7-dioxo-6,6',6',6^46^5,6^6-hexahydro-1^1H-8-oxa-2(4,2)-thiazola-1(5,3)-indola-6(1,3)-pyridazinacycloundecaphane-4-yl)-2,3-dimethylcyclopropane-1-carboxamide], the IC50 in the assay on NCI-H441 cells is 0.28 nM; in the assay with AsPC-1 p-ERK (AsPC-1 cells (KRAS G12D), 3 h incubation, read-out: AsPC-1 p-ERK IC50), 0.59 nM; in the assay on H441 p-ERK it was 0.72 nM; in the assay with AsPC-1 cells (AsPC-1 cells (KRAS G12D), 3D, 2% FBS, 5 days, read-out: AsPC-1 AP IC50), 0.18 nM.
Turning to `CCn1c(-c2cc(C#CCN3CCS(=O)(=O)CC3)cnc2[C@H](C)OC)c2c3cc(ccc31)-c1csc(n1)C[C@H](NC(=O)[C@@H](NC)C1CCCC1)C(=O)N1CCC[C@H](N1)C(=O)OCC(C)(C)C2` (atropisomer, axis not shown; (Ra)) [Compound Z15, (2S)-2-methylamino-2-cyclopentyl-N-((6^3S,4S,Z)-(Ra)-1^2-(5-(3-(1,1-dioxidothiomorpholino)prop-1-yn-1-yl)-2-((S)-1-methoxyethyl)pyridin-3-yl)-1^1-ethyl-10,10-dimethyl-5,7-dioxo-6^1,6^2,6^3,6^4,6^5,6^6-hexahydro-1^1H-8-oxa-2(4,2)-thiazola-1(5,3)-indola-6(1,3)-pyridazinacycloundecaphane-4-yl)acetamide], the IC50 worked out at 0.35 nM in the assay on NCI-H441 cells (Homo sapiens, 120 h); 0.42 nM with AsPC-1 p-ERK (setting [5]); 0.24 nM with H441 p-ERK (Homo sapiens); 0.31 nM in the assay with AsPC-1 cells (setting [6]).
For `CCn1c(-c2cc(C#CCN3CCN(C(=O)CNC)CC3)cnc2[C@H](C)OC)c2c3cc(ccc31)-c1csc(n1)C[C@H](NC(=O)[C@H]1[C@@H]3COC[C@@H]31)C(=O)N1CCC[C@H](N1)C(=O)OCC(C)(C)C2` (atropisomer, axis not shown; (Ra)) [Compound Z164] the same measures were 2.04 nM, 2.08 nM, 1.51 nM and 2.59 nM.
`CCn1c(-c2cc(C#CCN3CCS(=O)(=O)CC3)cnc2[C@H](C)OC)c2c3cc(ccc31)-c1csc(n1)C[C@H](NC(=O)[C@@H](NC)C1CCC1)C(=O)N1CCC[C@H](N1)C(=O)OCC(C)(C)C2` (atropisomer, axis not shown; (Ra)) [Compound Z17, (2S)-2-methylamino-2-cyclobutyl-N-((6^3S,4S,Z)-(Ra)-1^2-(5-(3-(1,1-dioxidothiomorpholino)prop-1-yn-1-yl)-2-((S)-1-methoxyethyl)pyridin-3-yl)-1^1-ethyl-10,10-dimethyl-5,7-dioxo-6^1,6^2,6^3,6^4,6^5,6^6-hexahydro-1^1H-8-oxa-2(4,2)-thiazola-1(5,3)-indola-6(1,3)-pyridazinacycloundecaphane-4-yl)acetamide]: the IC50 in the assay on NCI-H441 cells (Homo sapiens, 120 h) came to 0.35 nM; in the assay on AsPC-1 p-ERK (setting [5]), 0.26 nM; in the assay on H441 p-ERK (Homo sapiens) it was 0.22 nM; with AsPC-1 cells (setting [6]), 0.46 nM.

One may read the IC50 as the midpoint of a concentration-inhibition curve.
